Test results as given in PubChem BioAssay (NCI).
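Here, GI50 denotes the concentration required for 50% inhibition of growth. TGI: concentration producing complete growth inhibition.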

Tests used:
Experiment in all cases: growth of human tumour cells (NCI), 384-well format
MOLT-4 leukemia = test system: MOLT-4 leukemia
HL-60(TB) leukemia = test system: HL-60(TB) leukemia
HCC-2998 colon = test system: HCC-2998 colon
NCI-H322M lung = test system: NCI-H322M lung
SN12C renal = test system: SN12C renal
SK-MEL-28 melanoma = test system: SK-MEL-28 melanoma
NCI/ADR-RES ovarian = test system: NCI/ADR-RES ovarian
HT29 colon = test system: HT29 colon
PC-3 prostate = test system: PC-3 prostate
HOP-92 NSCLC = test system: HOP-92 NSCLC
MDA-MB-468 breast = test system: MDA-MB-468 breast
T-47D breast = test system: T-47D breast
COLO 205 colon = test system: COLO 205 colon
UO-31 renal = test system: UO-31 renal
NCI-H460 NSCLC = test system: NCI-H460 NSCLC
SK-OV-3 ovarian = test system: SK-OV-3 ovarian
NCI-H522 lung = test system: NCI-H522 lung
NCI-H226 lung = test system: NCI-H226 lung
SF-295 CNS = test system: SF-295 CNS
SNB-19 CNS = test system: SNB-19 CNS
ACHN renal = test system: ACHN renal
RXF 393 renal = test system: RXF 393 renal
786-0 renal = test system: 786-0 renal
SK-MEL-5 melanoma = test system: SK-MEL-5 melanoma
CCRF-CEM leukemia = test system: CCRF-CEM leukemia
SR leukemia = test system: SR leukemia
U251 glioblastoma = test system: U251 glioblastoma
A549 NSCLC = test system: A549 NSCLC
M14 melanoma = test system: M14 melanoma
MDA-MB-231 breast = test system: MDA-MB-231 breast
RPMI-8226 leukemia = test system: RPMI-8226 leukemia
TK-10 renal = test system: TK-10 renal
HCT-15 colon = test system: HCT-15 colon
SF-539 CNS = test system: SF-539 CNS
OVCAR-8 ovarian = test system: OVCAR-8 ovarian
MCF7 breast = test system: MCF7 breast
EKVX NSCLC = test system: EKVX NSCLC
NCI-H23 lung = test system: NCI-H23 lung
K-562 leukemia = test system: K-562 leukemia
OVCAR-3 ovarian = test system: OVCAR-3 ovarian
DU-145 prostate = test system: DU-145 prostate
IGROV1 ovarian = test system: IGROV1 ovarian
KM12 colon = test system: KM12 colon
BT-549 breast = test system: BT-549 breast
A498 renal = test system: A498 renal
CAKI-1 renal = test system: CAKI-1 renal
SNB-75 CNS = test system: SNB-75 CNS
UACC-62 melanoma = test system: UACC-62 melanoma
MDA-MB-435 melanoma = test system: MDA-MB-435 melanoma
HS 578T breast = test system: HS 578T breast
HCT-116 colon = test system: HCT-116 colon
SF-268 CNS = test system: SF-268 CNS
MALME-3M melanoma = test system: MALME-3M melanoma
HOP-62 NSCLC = test system: HOP-62 NSCLC
SW-620 colon = test system: SW-620 colon
LOX IMVI melanoma = test system: LOX IMVI melanoma
OVCAR-4 ovarian = test system: OVCAR-4 ovarian
UACC-257 melanoma = test system: UACC-257 melanoma

Compound Cc1nnc(C[C@@H]2C=C(c3ccc(Cl)cc3)c3ccccc3-n3c(C)nnc32)o1 has a GI50 (MOLT-4 leukemia) of 0.321 µM, a TGI (MOLT-4 leukemia) of 10.2 µM and a GI50 (HL-60(TB) leukemia) of 0.0346 µM. It also gave a TGI (HL-60(TB) leukemia) of 0.144 µM, a GI50 (HCC-2998 colon) of 0.285 µM and a TGI (HCC-2998 colon) of 2.46 µM. The GI50 (NCI-H322M lung) was 0.492 µM, the TGI (NCI-H322M lung) was 37.6 µM and the GI50 (SN12C renal) was 12.5 µM. The TGI (SN12C renal) was 41.1 µM, the GI50 (SK-MEL-28 melanoma) was 0.987 µM and the TGI (SK-MEL-28 melanoma) was 36.7 µM. The GI50 (NCI/ADR-RES ovarian) was 1.49 µM, the TGI (NCI/ADR-RES ovarian) was 12.5 µM and the GI50 (HT29 colon) was 0.267 µM. For the same compound, the TGI (HT29 colon) was 14.5 µM, the GI50 (PC-3 prostate) was 0.996 µM and the TGI (PC-3 prostate) was 33.2 µM. For the same compound, the GI50 (HOP-92 NSCLC) was 0.595 µM, the TGI (HOP-92 NSCLC) was 45 µM and the GI50 (MDA-MB-468 breast) was 1.5 µM. For the same compound, the TGI (MDA-MB-468 breast) was 16.4 µM, the GI50 (T-47D breast) was 4.96 µM and the TGI (T-47D breast) was 57.9 µM. The GI50 (COLO 205 colon) was 0.487 µM, the TGI (COLO 205 colon) was 17.2 µM and the GI50 (UO-31 renal) was 0.676 µM. The TGI (UO-31 renal) was > 100 µM, the GI50 (NCI-H460 NSCLC) was 1.34 µM and the TGI (NCI-H460 NSCLC) was 18.7 µM. For the same compound, the GI50 (SK-OV-3 ovarian) was 0.393 µM, the TGI (SK-OV-3 ovarian) was 15.3 µM and the GI50 (NCI-H522 lung) was 0.25 µM. For the same compound, the TGI (NCI-H522 lung) was 2.95 µM, the GI50 (NCI-H226 lung) was 0.294 µM and the TGI (NCI-H226 lung) was 17.4 µM. The GI50 (SF-295 CNS) was 4.52 µM, the TGI (SF-295 CNS) was 32.6 µM and the GI50 (SNB-19 CNS) was 2.55 µM. The TGI (SNB-19 CNS) was 31.6 µM, the GI50 (ACHN renal) was 1.96 µM and the TGI (ACHN renal) was 56.8 µM. It also gave a GI50 (RXF 393 renal) of 2.6 µM, a TGI (RXF 393 renal) of 18.3 µM and a GI50 ([…]-0 renal) of 0.424 µM. It also gave a TGI (786-0 renal) of 20.8 µM, a GI50 (SK-MEL-5 melanoma) of 0.695 µM and a TGI (SK-MEL-5 melanoma) of 17.7 µM. It also gave a GI50 (CCRF-CEM leukemia) of 0.357 µM, a TGI (CCRF-CEM leukemia) of 12.5 µM and a GI50 (SR leukemia) of 0.0585 µM. It also gave a TGI (SR leukemia) of 0.371 µM, a GI50 (U251 glioblastoma) of 3.89 µM and a TGI (U251 glioblastoma) of 25 µM. It also gave a GI50 (A549 NSCLC) of 0.989 µM, a TGI (A549 NSCLC) of 26.4 µM and a GI50 (M14 melanoma) of 0.935 µM. The TGI (M14 melanoma) was 38.8 µM, the GI50 (MDA-MB-231 breast) was 0.39 µM and the TGI (MDA-MB-231 breast) was > 100 µM. The GI50 (RPMI-8226 leukemia) was 0.059 µM, the TGI (RPMI-8226 leukemia) was 0.351 µM and the GI50 (TK-10 renal) was 0.29 µM. The TGI (TK-10 renal) was 13.4 µM, the GI50 (HCT-15 colon) was 0.283 µM and the TGI (HCT-15 colon) was 10.4 µM. It also gave a GI50 (SF-539 CNS) of 1.65 µM, a TGI (SF-539 CNS) of 24.5 µM and a GI50 (OVCAR-8 ovarian) of 0.246 µM. It also gave a TGI (OVCAR-8 ovarian) of 3.1 µM, a GI50 (MCF7 breast) of 0.087 µM and a TGI (MCF7 breast) of 21.4 µM. It also gave a GI50 (EKVX NSCLC) of 17.5 µM, a TGI (EKVX NSCLC) of 66.8 µM and a GI50 (NCI-H23 lung) of 0.545 µM. For the same compound, the TGI (NCI-H23 lung) was 12.9 µM, the GI50 (K-562 leukemia) was 0.377 µM and the TGI (K-562 leukemia) was 15.4 µM. The GI50 (OVCAR-3 ovarian) was 0.379 µM, the TGI (OVCAR-3 ovarian) was 12.9 µM and the GI50 (DU-145 prostate) was 5.28 µM. It also gave a TGI (DU-145 prostate) of 43 µM, a GI50 (IGROV1 ovarian) of 0.631 µM and a TGI (IGROV1 ovarian) of 15.2 µM. It also gave a GI50 (KM12 colon) of 1.69 µM, a TGI (KM12 colon) of 20.7 µM and a GI50 (BT-549 breast) of 0.238 µM. The TGI (BT-549 breast) was 10 µM, the GI50 (A498 renal) was 0.783 µM and the TGI (A498 renal) was 16.3 µM. For the same compound, the GI50 (CAKI-1 renal) was 0.0908 µM, the TGI (CAKI-1 renal) was 13.5 µM and the GI50 (SNB-75 CNS) was 0.965 µM. For the same compound, the TGI (SNB-75 CNS) was > 100 µM, the GI50 (UACC-62 melanoma) was 0.076 µM and the TGI (UACC-62 melanoma) was 12.2 µM. It also gave a GI50 (MDA-MB-435 melanoma) of 2.13 µM, a TGI (MDA-MB-435 melanoma) of 17.1 µM and a GI50 (HS 578T breast) of 0.0882 µM. For the same compound, the TGI (HS 578T breast) was 1.4 µM, the GI50 (HCT-116 colon) was 0.453 µM and the TGI (HCT-116 colon) was 17.9 µM. The GI50 (SF-268 CNS) was 3.22 µM, the TGI (SF-268 CNS) was 24 µM and the GI50 (MALME-3M melanoma) was 0.382 µM. For the same compound, the TGI (MALME-3M melanoma) was 19.3 µM, the GI50 (HOP-62 NSCLC) was 0.316 µM and the TGI (HOP-62 NSCLC) was 16.2 µM. It also gave a GI50 (SW-620 colon) of 10.4 µM, a TGI (SW-620 colon) of 22.7 µM and a GI50 (LOX IMVI melanoma) of 0.192 µM. For the same compound, the TGI (LOX IMVI melanoma) was 0.469 µM, the GI50 (OVCAR-4 ovarian) was 0.447 µM and the TGI (OVCAR-4 ovarian) was 4.91 µM. For the same compound, the GI50 (UACC-257 melanoma) was 7.05 µM and the TGI (UACC-257 melanoma) was 27.3 µM.
